Patent US9079852B2, “NMDA receptor antagonists for neuroprotection” (Emory University, priority 2007, dated 2015)
Values belong to the molecule of their own block, whether it stands above or below them.

Key:
[1] = Oral absorption (Table I); type: in vivo; conditions: rat, plasma, read-out: p.o. t½ hr (converted)
[2] = Plasma half-life / plasma pharmacokinetics (Table G); type: in vivo; conditions: rat
Method: (§1) Animals were fasted overnight prior to dose administration and food returned to the animals two hours after dosing. Following IV dosing, blood samples (ca 200 μL) were collected into separate tubes containing anticoagulant (K-EDTA) via the orbital plexus at various times post administration. Plasma samples were prepared immediately after collection by centrifugation for ten minutes using a tabletop centrifuge, and stored at −80° C. Brain tissue was weighed, homogenized on ice in 50 mM phosphate buffer (2 ml per brain) and the homogenate stored at −80° C. Plasma and brain homogenate samples were extracted by the addition of 5 volumes of cold acetonitrile, mixed well by vortexing and centrifuged at 4000 rpm for 15 minutes. The supernatant fractions were analyzed by LC-MS/MS operating in multiple reaction monitoring mode (MRM). The amount of parent compound in each sample was calculated by comparing the response of the analyte in the sample to that of a standard curve.

[3] = Brain exposure / brain penetration (Table H); type: in vivo, rat; conditions: for BBB Pene Classification: classes High/Moderate/Low, key not given
Method: as §1, with “Rats (n=3 per dose) were administered compounds at a doses of 1-4 mg/kg in a single bolus i.v. infusion (2 ml/kg body weight) via the tail vein formulated in 2% dimethyl acetamide/98% 2-hydroxy-propyl cyclodextrin (5%). Animals” for “Animals”

[4] = target: rat alpha-1 adrenergic receptor; assay: alpha-1 adrenergic receptor binding by displacement of 3[H]-prazosin in rat brain membranes; conditions: 3[H]-prazosin displacement, read-out: α1 IC50
Method: Binding to the rat alpha-1 adrenergic receptor in rat brain membranes was determined by displacement of ^3[H]-prazosin (P. Greengrass and R. Bremner; Binding characteristics of 3H-prazosin to rat brain a-adrenergic receptors. Eur. J. Pharmacol. 1979, 55: 323-326). Compounds were incubated at 0.3 or 3 μM final concentration, in duplicate, and the amount of displaced ^3[H]-prazosin determined by liquid scintillation spectroscopy.
Binding IC50 values were determined from displacement curves (four-six concentrations, each concentration in duplicate) fit by a non-linear, least squares, regression analysis using MathIQ (ID Business Solutions Ltd., UK). The binding Ki's were determined from the IC50 according to the method of Cheng and Prusoff (Y. Cheng and W. H. Prusoff; Relationship between the inhibition constant (K1) and the concentration of inhibitor which causes 50 percent inhibition (IC50) of an enzymatic reaction. Biochem. Pharmacol. 1973, 22: 3099-3108).

[5] = iv, 1 mg/kg, 1 MPK i.v., read-out: PK-i.v. t½ (converted)
[6] = iv, 3 mg/kg, 3 MPK i.v., read-out: PK-i.v. t½ (converted)

Structure (SMILES): Cc1ccc(N2CCN(C[C@H](O)COc3ccc4c(c3)CCC(=O)N4)CC2)cc1 [drawing 780]
half-life ([1]; 5 mg/kg, 5 MPK, 0-6 hr p.o.): 51 min

Structure (SMILES): O=C1N(C[C@H](O)COc2ccc(O)cc2)CCN1c1ccc(Cl)cc1 [drawing 763]
half-life [2, 6]: ≤ 0.8 h

Structure (SMILES): NC(=O)Nc1ccc(OC[C@@H](O)CN2CCN(c3ccc(Cl)cc3)C2=O)cc1 [drawing 773]
RATIO: Brain:plasma (Direct) ([3]; 1 MPK i.v., no time point printed): Below Detection limit (~0) | BBB Pene Classification [3]: Low

Structure (SMILES): CS(=O)(=O)Nc1ccc(OC[C@@H](O)CN2CCN(c3ccc(F)c(F)c3)CC2)cc1 [drawing 757]
half-life ([2]; ip, 60 mg/kg, 60 MPK i.p., read-out: PK t½ (hr) i.p.): > 2 h

Structure (SMILES): CS(=O)(=O)Nc1ccc(OC[C@@H](O)CN2CCN(c3ccc(Cl)cc3)CC2)cc1
IC50 [4]: 0.35 µM

Structure (SMILES): O=c1[nH]c2ccc(OC[C@@H](O)CSc3nc4cc(Cl)c(Cl)cc4[nH]3)cc2o1 [drawing 766]
half-life [2, 6]: ≤ 0.8 h

Structure (SMILES): O=c1[nH]c2ccc(OC[C@@H](O)CSc3nc4cc(Cl)c(Cl)cc4[nH]3)cc2o1 [drawing 777]
RATIO: Brain:plasma (Direct), 30 m ([3]; 3 MPK i.v., 30 m): BLQ (avg); BLQ (30 m), BLQ (1 hr), | RATIO: Brain:plasma (Direct), 1 hr ([3]; 3 MPK i.v., 1 hr): BLQ (avg); BLQ (30 m), BLQ (1 hr), | RATIO: Brain:plasma (Direct), avg ([3]; 3 MPK i.v., avg): BLQ (avg); BLQ (30 m), BLQ (1 hr), | BBB Pene Classification [3]: Moderate

Structure (SMILES): Oc1ccc(OC[C@@H](O)CSc2nc3cc(Cl)c(Cl)cc3[nH]2)cc1 [drawing 767]
half-life [2, 6]: ~0.5 h

Structure (SMILES): Oc1ccc(OC[C@@H](O)CN2CCN(c3ccc(Cl)cc3)CC2)cc1 [drawing 759]
half-life [2, 5]: 0.6 h

Structure (SMILES): Oc1ccc(OC[C@@H](O)CN2CCN(c3ccc(Cl)cc3)CC2)cc1 [drawing 743]
IC50 [4]: 0.72 µM

Structure (SMILES): NC(=O)Nc1ccc(OC[C@@H](O)CN2CCN(c3ccc(Cl)cc3)CC2)cc1 [drawing 754]
half-life [2, 5]: 2.7 h

Structure (SMILES): O=C1N(C[C@H](O)COc2ccc(O)cc2)CCN1c1ccc(Cl)cc1 [drawing 772]
BBB Pene Classification [3]: High

Structure (SMILES): Cc1ccc(N2CCN(C[C@H](O)COc3ccc4c(c3)CCC(=O)N4)CC2)cc1 [drawing 758]
half-life [2, 5]: 0.8 h

Structure (SMILES): NC(=O)Nc1ccc(OC[C@@H](O)CN2CCN(c3ccc(Cl)cc3)CC2)cc1 [drawing 771]
BBB Pene Classification [3]: Low

Structure (SMILES): CS(=O)(=O)Nc1ccc(OC[C@@H](O)CN2CCN(c3ccc(F)c(F)c3)CC2)cc1 [drawing 770]
BBB Pene Classification [3]: Moderate

Structure (SMILES): O=C1Cc2cc(OC[C@@H](O)CN3CCN(c4ccc(Cl)cc4)CC3)ccc2N1
IC50 [4]: ~0.1 µM

Structure (SMILES): NC(=O)Nc1ccc(OC[C@@H](O)CN2CCN(c3ccc(Cl)cc3)CC2)cc1 [drawing 746]
IC50 [4]: 0.34 µM

Structure (SMILES): O=C1CCc2cc(OC[C@@H](O)CN3CCN(c4ccc(Cl)cc4)CC3)ccc2N1
IC50 [4]: ~0.1 µM

Structure (SMILES): Oc1ccc(OC[C@@H](O)CSc2nc3cc(Cl)c(Cl)cc3[nH]2)cc1 [drawing 776]
RATIO: Brain:plasma (Direct), 2 hr ([3]; 3 MPK i.v., 2 hr): BLQ | BBB Pene Classification [3]: High

Structure (SMILES): O=c1ccc2cc(OC[C@@H](O)CN3CCN(c4ccc(Cl)cc4)CC3)ccc2[nH]1
IC50 [4]: ~0.35 µM

Structure (SMILES): Oc1ccc(OC[C@@H](O)CN2CCN(c3ccc(Cl)cc3)CC2)cc1 [drawing 768]
BBB Pene Classification [3]: High

Structure (SMILES): O[C@H](COc1ccc2[nH]c(=S)[nH]c2c1)CN1CCN(c2ccc(Cl)cc2)CC1
IC50 [4]: ~0.15 µM

Structure (SMILES): O[C@H](COc1ccc2[nH]ncc2c1)CN1CCN(c2ccc(Cl)cc2)CC1
IC50 [4]: ~0.3 µM

Structure (SMILES): NC(=O)Nc1ccc(OC[C@@H](O)CN2CCN(c3ccc(Cl)cc3)C2=O)cc1 [drawing 762]
half-life [2, 5]: 1.14 h

Structure (SMILES): NC(=O)Nc1ccc(OC[C@@H](O)CN2CCN(c3ccc(Cl)cc3)CC2)cc1 [drawing 778]
half-life ([1]; 10 mg/kg, 10 MPK, 0-8 hr p.o.): 388 min

Next, values leading:

half-life [2, 5]: 2.4 h
Structure (SMILES): O=c1[nH]c2ccc(OC[C@@H](O)CN3CCN(c4ccc(F)c(F)c4)CC3)cc2[nH]1 [drawing 755]

Kp at 15 min ([3]; rat, brain/plasma, iv, 1 mg/kg, 1 MPK i.v., 15 m, read-out: RATIO: Brain:plasma (Direct), 15 m): 0.04 | Kp at 30 min ([3]; rat, brain/plasma, iv, 1 mg/kg, 1 MPK i.v., 30 m, read-out: RATIO: Brain:plasma (Direct), 30 m): 0.06 | Kp at 1 h ([3]; rat, brain/plasma, iv, 1 mg/kg, 1 MPK i.v., 1 hr, read-out: RATIO: Brain:plasma (Direct), 1 hr): 0.07 | Kp at 3 h ([3]; rat, brain/plasma, iv, 1 mg/kg, 1 MPK i.v., 3 hr, read-out: RATIO: Brain:plasma (Direct), 3 hr): 0.1 | Kp ([3]; rat, brain/plasma, iv, 1 mg/kg, 1 MPK i.v., avg, read-out: RATIO: Brain:plasma (Direct), avg): 0.07
Structure (SMILES): O=C(COc1ccc2[nH]c(=O)oc2c1)N1CCN(c2ccc(Cl)c(Cl)c2)CC1 [drawing 775]

half-life [2, 5]: 0.6 h
Structure (SMILES): O=c1[nH]c2ccc(OC[C@@H](O)CN3CCN(c4ccc(Cl)cc4)CC3)cc2o1 [drawing 760]

half-life [2, 6]: 2.6 h
Structure (SMILES): CS(=O)(=O)Nc1ccc(OC[C@@H](O)CN2CCN(c3ccc(Cl)c(Cl)c3)CC2)cc1

half-life ([1]; 5 mg/kg, 5 MPK, 0-6 hr p.o.): 182 min
Structure (SMILES): O=c1[nH]c2ccc(OC[C@@H](O)CN3CCN(c4ccc(F)c(F)c4)CC3)cc2[nH]1 [drawing 779]

IC50 [4]: ~0.35 µM
Structure (SMILES): O=c1[nH]c2ccc(OC[C@@H](O)CN3CCN(c4ccc(Cl)cc4)CC3)cc2[nH]1

half-life ([2]; ip, 10 mg/kg, 10 MPK i.p., read-out: PK t½ (hr) i.p.): ~0.83 h
Structure (SMILES): O=C(COc1ccc2[nH]c(=O)oc2c1)N1CCN(c2ccc(Cl)c(Cl)c2)CC1 [drawing 765]

half-life [2, 5]: 1.84 h
Structure (SMILES): O=C(COc1ccc2[nH]c(=O)[nH]c2c1)N1CCN(c2ccc(Cl)c(Cl)c2)CC1

IC50 [4]: 0.62 µM
Structure (SMILES): O=c1[nH]c2ccc(OC[C@@H](O)CN3CCN(c4ccc(Cl)cc4)CC3)cc2o1 [drawing 744]

BBB Pene Classification [3]: Moderate
Structure (SMILES): O=C(COc1ccc2[nH]c(=O)oc2c1)N1CCN(c2ccc(Cl)c(Cl)c2)CC1 [drawing 774]

BBB Pene Classification [3]: Moderate
Structure (SMILES): Cc1ccc(N2CCN(C[C@H](O)COc3ccc4[nH]c(=O)oc4c3)CC2)cc1 [drawing 769]

half-life [2, 5]: 0.6 h
Structure (SMILES): Cc1ccc(N2CCN(C[C@H](O)COc3ccc4[nH]c(=O)oc4c3)CC2)cc1 [drawing 761]
